Patent publication US12416034B2, “Recombinant production of steviol glycosides” (EVOLVA SA, priority 2011, dated 2025)

B1: codon-optimized UGT85C2: UGT85C2 expressed from the GeneArt codon-optimized sequence; amino acid sequence unchanged (protein, UniProt Q6VAB0 1-481, looked up)
UDP-glycosyltransferase 85C2: MDAMATTEKKPHVIFIPFPAQSHIKAMLKLAQLLHHKGLQITFVNTDFIHNQFLESSGPHCLDGAPGFRFETIPDGVSHSPEASIPIRESLLRSIETNFLDRFIDLVTKLPDPPTCIISDGFLSVFTIDAAKKLGIPVMMYWTLAACGFMGFYHIHSLIEKGFAPLKDASYLTNGYLDTVIDWVPGMEGIRLKDFPLDWSTDLNDKVLMFTTEAPQRSHKVSHHIFHTFDELEPSIIKTLSLRYNHIYTIGPLQLLLDQIPEEKKQTGITSLHGYSLVKEEPECFQWLQSKEPNSVVYVNFGSTTVMSLEDMTEFGWGLANSNHYFLWIIRSNLVIGENAVLPPELEEHIKKRGFIASWCSQEKVLKHPSVGGFLTHCGWGSTIESLSAGVPMICWPYSWDQLTNCRYICKEWEVGLEMGTKVKRDEVKRLVQELMGEGGHKMRNKAKDWKEKARIAIAPNGSSSLNIDKMVKEITVLARN
B2: CPR-4: S. cerevisiae NCP1, Accession No. YHR042W (protein, UniProt P16603 2-691, looked up)
NADPH--cytochrome P450 …: PFGIDNTDFTVLAGLVLAVLLYVKRNSIKELLMSDDGDITAVSSGNRDIAQVVTENNKNYLVLYASQTGTAEDYAKKFSKELVAKFNLNVMCADVENYDFESLNDVPVIVSIFISTYGEGDFPDGAVNFEDFICNAEAGALSNLRYNMFGLGNSTYEFFNGAAKKAEKHLSAAGAIRLGKLGEADDGAGTTDEDYMAWKDSILEVLKDELHLDEQEAKFTSQFQYTVLNEITDSMSLGEPSAHYLPSHQLNRNADGIQLGPFDLSQPYIAPIVKSRELFSSNDRNCIHSEFDLSGSNIKYSTGDHLAVWPSNPLEKVEQFLSIFNLDPETIFDLKPLDPTVKVPFPTPTTIGAAIKHYLEITGPVSRQLFSSLIQFAPNADVKEKLTLLSKDKDQFAVEITSKYFNIADALKYLSDGAKWDTVPMQFLVESVPQMTPRYYSISSSSLSEKQTVHVTSIVENFPNPELPDAPPVVGVTTNLLRNIQLAQNNVNIAETNLPVHYDLNGPRKLFANYKLPVHVRRSNFRLPSNPSTPVIMIGPGTGVAPFRGFIRERVAFLESQKKGGNNVSLGKHILFYGSRNTDDFLYQDEWPEYAKKLDGSFEMVVAHSRLPNTKKVYVQDKLKDYEDQVFEMINNGAFIYVCGDAKGMAKGVSTALVGILSRGKSITTDEATELIKMLKTSGRYQEDVW

How the values were obtained:
S. cerevisiae = assay: Toxicity of intermediates: growth of S. cerevisiae CEN.PK; assay type: cell-based; conditions: growth of CEN.PK transformants
Source text: The effect on S. cerevisiae vitality of geranyl geranyl pyrophosphate (GGPP), ent-copalyl diphosphate (CDP) or ent-kaurene production was investigated by expression of Synechococcus sp GGPPS alone (GGPP production), the GGPPS and the 50 amino acid N-terminally truncated Zea mays CDPS (see Example 16) together (CDP production), or the GGPPS, truncated CDPS and the Arabidopsis thaliana kaurene synthase (KS5) together (ent kaurene production) in the laboratory S. cerevisiae strain CEN.PK background. Genes were expressed from 2μ plasmids with GPD promoters driving transcription of truncated CDPS and KS5, while transcription of the GGPPS was driven by the ADH1 promoter. The growth of S. cerevisiae CEN.PK transformed with various combinations of these plasmids (GGPPS alone; GGPPS+truncated CDPS; or GGPPS+truncated CDPS+KS5) or plasmids without gene insertions was observed. GGPP production, and especially CDP production, was toxic to S. cerevisiae when produced as end products.

RebA solubility in water = assay type: physicochemical
Experimental: The solubility of RebA determines the concentration that can be used both for the whole-cell approach and for the cell-free approach. Several different solutions of RebA in water were made and left at room temperature for several days. After 24 hours of storage, RebA precipitated at concentrations of 50 mM or higher. Twenty-five mM RebA started to precipitate after 4-5 days, while 10 mM or lower concentrations remained in solution, even when stored at 4° C.

[1] = test system: Stevia rebaudiana kaurene oxidase; assay: Ent-kaurenoic acid accumulation in EFSC2386 with different CPRs (activation of KO1); assay type: cell-based, S. cerevisiae; conditions: LC-MS peak area; with KO-1 in EFSC2386
Source text: The CEN.PK S. Cerevisiae EFSC2386 strain and the CPRs referred to in this Example are described in the Example 11 (“Identification of S. rebaudiana KAH”). EFSC2386 contained the following integrated genes: Aspergillus nidulans Geranyl geranyl pyrophosphate synthase (GGPPS); Zea mays ent-copalyl diphosphate synthase (CDPS); Stevia rebaudiana ent-kaurene synthase (KS); and Stevia rebaudiana ent-kaurene oxidase (KO). This strain produces ent-kaurenoic acid that was detected by LC-MS analysis.
A collection of cytochrome P450 reductases (CPRs) were expressed and tested in strain EFSC2386; “CPR1” (S. rebaudiana NADPH dependent cytochrome P450 reductase, Kumar et al., Accession no. DQ269454); “ATR1” (A. thaliana CPR, Accession No. CAA23011); “ATR2” (A. thaliana CPR, Accession No. CAA46815); “CPR7” (S. rebaudiana CPR, CPR7 is similar to “CPR1”); “CPR8” (S. rebaudiana CPR, similar to Artemisia annua CPR; and “CPR4” (S. cerevisiae NCP1, Accession No. YHR042W).
Overexpression of the S. cerevisiae endogenous native CPR (referred to as CPR4 in Table 14), and especially overexpression of one of the A. thaliana CPRs namely ATR2, gives good activation of the Stevia rebaudiana kaurene oxidase (the latter called KO1 in Table 14) and results in increased accumulation of ent-kaurenoic acid. See Table 14, which presents the area under curve (AUC) of the ent-kaurenoic acid peak in the LC-MS chromatograms. KO1 is an ent-kaurenoic acid producing yeast control strain without additional overexpression of CPRs.

[2] = test system: S. cerevisiae strain BY4741; assay: Steviol-feeding experiment of S. cerevisiae strain BY4741; assay type: cell-based
Experimental: Further experiments were conducted to determine if the codon-optimized UGT85C2 could reduce 19-SMG accumulation and increase rubusoside and higher glycosylated steviol glycosides production. The production of 19-SMG and rubusoside were analysed in a steviol-feeding experiment of S. cerevisiae strain BY4741 expressing the wild type UGT74G1 as well as the codon-optimized UGT85C2 from high copy (2p) vectors under strong constitutive promoter (GPD1) (vectors P426-GPD and P423-GPD, respectively). Whole culture samples (without cell removal) were taken and boiled in an equal volume of DMSO for total glycosides levels. Intracellular concentrations reported were obtained by pelleting cells, and resuspending in 50% DMSO to the volume of the original culture sample taken, followed by boiling. The “total” glycosides level and the normalized intracellular level then were measured using LC-MS. Using wild type UGT74G1 and wild type UGT85C2, approximately 13.5 μM rubusoside was produced in total with a maximum normalized intracellular concentration of about 7 μM. In contrast, when wild type UGT74G1 and codon-optimized UGT85C2 were used, a maximum of 26 μM rubusoside was produced, or approximately double of what was produced using the wild type UGT85C2. Additionally, the maximum normalized intracellular concentration of rubusoside was 13 μM, again an approximate doubling of what was produced using wild type UGT85C2. […] Consequently, about 10 μM less total 19-SMG was measured for the codon-optimized UGT85C2.

[3] = co-expressed with wild type UGT74G1, steviol feeding

Sequence of Stevia rebaudiana kaurene oxidase (as listed by the source): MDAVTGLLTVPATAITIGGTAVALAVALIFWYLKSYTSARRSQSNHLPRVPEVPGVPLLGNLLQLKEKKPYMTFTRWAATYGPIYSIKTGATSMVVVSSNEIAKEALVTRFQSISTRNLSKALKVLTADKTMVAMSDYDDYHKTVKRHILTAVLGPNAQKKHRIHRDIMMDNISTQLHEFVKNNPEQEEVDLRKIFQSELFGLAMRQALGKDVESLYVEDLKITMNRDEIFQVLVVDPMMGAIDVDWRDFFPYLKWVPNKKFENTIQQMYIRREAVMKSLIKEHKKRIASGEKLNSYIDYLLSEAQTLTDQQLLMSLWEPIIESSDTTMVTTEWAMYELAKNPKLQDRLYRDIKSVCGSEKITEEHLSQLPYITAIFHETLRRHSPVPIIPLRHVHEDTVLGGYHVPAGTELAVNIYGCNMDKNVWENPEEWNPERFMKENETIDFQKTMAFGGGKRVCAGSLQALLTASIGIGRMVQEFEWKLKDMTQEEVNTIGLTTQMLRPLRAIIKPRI

Molecule | toxicity to S. cerevisiae when produced as end product (S. cerevisiae) | Ent-Kaurenoic Acid (AUC) [1] [AUC] | also measured
C=C1CC[C@@H]2C(C)(C)CCC[C@@]2(C)[C@@H]1CC/C(C)=C/COP(=O)(O)OP(=O)(O)O [CDP, ent-copalyl diphosphate] | toxic | – | –
CC(C)=CCC/C(C)=C/CC/C(C)=C/CC/C(C)=C/COP(=O)(O)OP(=O)(O)O [GGPP, geranyl geranyl pyrophosphate] | toxic | – | –
C=C1C[C@@]23CC[C@H]4[C@@](C)(CCC[C@@]4(C)C(=O)O[C@@H]4O[C@H](CO)[C@@H](O)[C@H](O)[C@H]4O)[C@@H]2CC[C@]1(O[C@@H]1O[C@H](CO)[C@@H](O)[C@H](O[C@@H]2O[C@H](CO)[C@@H](O)[C@H](O)[C@H]2O)[C@H]1O[C@@H]1O[C@H](CO)[C@@H](O)[C@H](O)[C@H]1O)C3 [RebA, Rebaudioside A] | – | – | time until precipitation started (RebA solubility in water; Twenty-five mM RebA in water): 4 to 5 days; concentration at which RebA precipitated (RebA solubility in water; water, room temperature, after 24 hours of storage): ≥ 50000 µM; concentration that remained in solution (RebA solubility in water; water, several days, even when stored at 4° C.): ≥ 10000 µM
C=C1C[C@@]23CC[C@@H]4C(C)(C)CCC[C@@]4(C)[C@@H]2CC[C@@H]1C3 [ent-kaurene] | not be toxic | – | –
ATR-2: A. thaliana CPR, Accession No. CAA46815 | – | 29412 | –
CPR-1: S. rebaudiana NADPH dependent cytochrome P450 reductase, Accession no. DQ269454 | – | 14113 | –
CPR-8: S. rebaudiana CPR, similar to Artemisia annua CPR | – | 12590 | –
B1 | – | – | less total 19-SMG than with wild type UGT85C2 [2]: about 10 μM; maximum intracellular concentration of 19-SMG [2, 3]: 19 µM; maximum normalized intracellular concentration of rubusoside [2, 3]: 13 µM; rubusoside produced in total [2, 3]: 26 µM
B2 | – | 25103 | –
